In assay [1] the test system is adult patients with NDD-CKD and anemia, actively treated with an ESA. Briefly: Phase 3 ESA-treated NDD-CKD (Conversion) trial, vadadustat vs darbepoetin alfa. The class given is in vivo, human. The conditions noted are these: Conversion study. As to the method:
(§1) Two global, Phase 3, randomized, open-label, active-controlled, sponsor-blind clinical trials were conducted to evaluate safety and efficacy of vadadustat (Compound 1) vs the ESA darbepoetin alfa in adult patients with NDD-CKD and anemia. Patients recruited into the ESA-untreated NDD-CKD trial (N=1761) had hemoglobin <10 g/dL and were not previously being treated with an ESA. Patients recruited into the ESA-treated NDD-CKD trial (N=1750) had hemoglobin ranges of 8-11 g/dL (US) or 9-12 g/dL (non-US) and were actively treated with an ESA for anemia associated with CKD. Trial periods in both trials included 1) correction/conversion (weeks 0-23); 2) maintenance (weeks 24-52); 3) long-term treatment (week 53 to end of treatment); and 4) safety follow-up (end-of-treatment to 4 weeks later). The primary safety endpoint was time to first adjudicated major adverse cardiovascular event, defined as all-cause mortality, non-fatal myocardial infarction or non-fatal stroke pooled across both trials. The primary efficacy endpoint in each trial was mean change in hemoglobin from baseline to primary evaluation period (weeks 24-36) comparing vadadustat vs darbepoetin alfa treatment arms. Demographics and baseline characteristics were similar among patients in both trials, and typical for a large proportion of the NDD-CKD population. These trials helped define the safety and efficacy of vadadustat, an oral hypoxia-inducible factor prolyl hydroxylase inhibitor for management of anemia associated with NDD-CKD.
(§2) Two randomized, Phase 3, open-label, active-controlled clinical trials were conducted to evaluate the safety and efficacy of oral vadadustat versus injectable darbepoetin alfa: Correction (previously ESA-untreated) and Conversion (previously ESA-treated). Target enrollment for each was approximately 1850 patients recruited at approximately 390 and 480 sites in North America, Latin America, Europe, and the Asia Pacific for the ESA-untreated NDD-CKD trial and the ESA-treated NDD-CKD trial, respectively.
(§3) Trial Populations. Each trial recruited adults (>18 years of age) with NDD-CKD (estimated glomerular filtration rate 60 mL/min/1.73 m^2). […] In addition to the hemoglobin entry criteria, all patients were required to have serum ferritin ≥100 ng/mL and transferrin saturation 20% at screening in order to be randomized. In the ESA-untreated NDD-CKD trial, ESA use was permitted during screening, as per standard of care; however, patients were excluded if they received any ESA within 8 weeks of randomization. In the ESA-treated NDD-CKD trial, patients were actively maintained on ESA therapy, with at least one dose received within 6 weeks before or during screening. […]

In assay [2] the test system is adult patients with NDD-CKD and anemia, not previously treated with an ESA. Put plainly: Phase 3 ESA-untreated NDD-CKD (Correction) trial, vadadustat vs darbepoetin alfa. The class given is in vivo, human. The note with it: Correction study. As to the method: as §1, §2, §3
Setting [3] is: weeks 24 to 36, non-inferiority margin −0.75 g/dL.

SMILES strings stand for the structures.

`O=C(O)CNC(=O)c1ncc(-c2cccc(Cl)c2)cc1O` [Compound 1, Vadadustat]: the “mean (SD) Hb level” value in assay [1] (week 24 to week 36) was 10.77 (0.98) g/dL; in assay [1] (week 40 to week 52), 10.80 (1.04) g/dL; in assay [2] (week 24 to week 36) it was 10.39 (0.99) g/dL; in assay [2] (week 40 to week 52) it was 10.48 (1.05) g/dL. Further, the “least square mean difference in Hb (vadadustat vs darbepoetin alfa)” value in assay [1] (setting [3]) was -0.01 g/dL; in assay [1] (weeks 40 to 52), 0.00 g/dL; in assay [2] (setting [3]), 0.05 g/dL; in assay [2] (weeks 40 to 52), 0.04 g/dL.

Values taken from patent US20230285374A1, “THERAPEUTIC METHODS USING VADADUSTAT” (Akebia Therapeutics, Inc., priority 2019, published 2023).
